Test results as given in patent publication US10052330B2, “Substituted pyrido[3,4-b]pyrazines as Syk inhibitors” (HUTCHISON MEDIPHARMA LIMITED, priority 2011, dated 2018).

Columns and labels:
[1] = molecular target: Syk kinase (Homo sapiens, UniProt P43405); test: Syk kinase enzymatic assay (Kit-Tyr 2 Peptide); format: biochemical; details: 8 concentrations, 1 μM down to 0.0003 μM; upper bound of each range is 'less than'; read-out: IC50: Enzymatic Activity (Syk kinase)
[2] = test system: RBL-2H3 cells; test: IgE-induced Beta-hexosaminidase secretion in RBL-2H3 cells; format: cell-based; details: Rattus norvegicus, RBL-2H3, RBL-2H3 cells sensitized with SPE-7, stimulated with DNP-BSA; upper bound of each range is 'less than'; read-out: IC50, IgE-induced Beta-hexosaminidase secretion

| Compound | IC50 [1] | IC50 [2] |
| --- | --- | --- |
| O=C1CCCN1c1ccc(-c2cc3nccnc3c(NC[C@@H]3CNCCO3)n2)cc1 [Compound 124] | 100 to 1000 nM | 100 to 1000 nM |
| Fc1cc(-c2cc3nccnc3c(NC[C@@H]3CNCCO3)n2)cc(F)c1N1CCOCC1 [Compound 135] | 100 to 1000 nM | 100 to 1000 nM |
| FC(F)Oc1ccc(-c2cc3nccnc3c(NC[C@@H]3CNCCO3)n2)cc1 [Compound 138] | 100 to 1000 nM | 100 to 1000 nM |
| NC(=O)N[C@@H]1CCN(c2nc(-c3ccc(N4CCOCC4)cc3)cc3nccnc23)C1 [Compound 144] | 100 to 1000 nM | 100 to 1000 nM |
| CCNC[C@@H]1CCN(c2nc(-c3ccc(N4CCOCC4)cc3)cc3nccnc23)C1 [Compound 148] | 100 to 1000 nM | 100 to 1000 nM |
| CS(=O)(=O)NC[C@@H]1CCN(c2nc(-c3ccc(N4CCOCC4)cc3)cc3nccnc23)C1 [Compound 149, (R)—N-((1-(7-(4-morpholinophenyl)pyrido[4,3-b]pyrazin-5-yl)pyrrolidin-3-yl)methyl)methanesulfonamide] | 100 to 1000 nM | 100 to 1000 nM |
| NC(=O)NC[C@@H]1CCN(c2nc(-c3ccc(N4CCOCC4)cc3)cc3nccnc23)C1 [Compound 150, (S)-1-((1-(7-(4-morpholinophenyl)pyrido[4,3-b]pyrazin-5-yl)pyrrolidin-3-yl)methyl)urea] | 100 to 1000 nM | 100 to 1000 nM |
| NC(=O)NC[C@H]1CCN(c2nc(-c3ccc(N4CCOCC4)cc3)cc3nccnc23)C1 [Compound 151] | 100 to 1000 nM | 100 to 1000 nM |
| c1cnc2c(NCc3cc[nH]n3)nc(-c3ccc(N4CCOCC4)cc3)cc2n1 [Compound 162] | 100 to 1000 nM | 100 to 1000 nM |
| CN(C)c1ccc(-c2cc3nccnc3c(N3CC[C@H](CO)C3)n2)cc1 [Compound 164] | 100 to 1000 nM | 100 to 1000 nM |
| CN(C)c1ccc(-c2cc3nccnc3c(N3CC[C@@H](CO)C3)n2)cc1 [Compound 165] | 100 to 1000 nM | 1 to 100 nM |
| CN(C)c1ccc(-c2cc3nccnc3c(NCCS(N)(=O)=O)n2)cc1 [Compound 166] | 100 to 1000 nM | 100 to 1000 nM |
| NS(=O)(=O)CCNc1nc(-c2ccc(N3CCOCC3)cc2)cc2nccnc12 [Compound 167] | 100 to 1000 nM | 100 to 1000 nM |
| O=C1CCC(CNc2nc(-c3ccc(N4CCOCC4)cc3)cc3nccnc23)CN1 (centres unmarked) [Compound 168] | 100 to 1000 nM | 100 to 1000 nM |
| c1cnc2c(NCCc3c[nH]cn3)nc(-c3ccc(N4CCOCC4)cc3)cc2n1 [Compound 172] | 100 to 1000 nM | 100 to 1000 nM |
| CC(O)[C@H]1CCN(c2nc(-c3ccc(N4CCOCC4)cc3)cc3nccnc23)C1 (stereo partly drawn) [Compound 174, (S)-1-(1-(7-(4-morpholinophenyl)pyrido[4,3-b]pyrazin-5-yl)pyrrolidin-3-yl)ethanol] | 100 to 1000 nM | 100 to 1000 nM |
| CN(C)c1ccc(-c2cc3nccnc3c(NCCC(N)=O)n2)cc1 [Compound 175, 3-(7-(4-(dimethylamino)phenyl)pyrido[4,3-b]pyrazin-5-ylamino)propanamide] | 100 to 1000 nM | 100 to 1000 nM |
| COc1ccc(-c2cc3nccnc3c(NCCC(N)=O)n2)cc1F [Compound 176] | 100 to 1000 nM | 100 to 1000 nM |
| NC(=O)CCNc1nc(-c2ccc(N3CCCC3)cc2)cc2nccnc12 [Compound 177] | 100 to 1000 nM | 1 to 100 nM |

| Compound | IC50 [1] | IC50 [2] |
| --- | --- | --- |
| NCCCNc1nc(-c2ccc(N3CCOCC3)nc2)cc2nccnc12 [Compound 194] | 100 to 1000 nM | 100 to 1000 nM |
| c1cnc2c(NCC3CNCCCO3)nc(-c3ccc(N4CCOCC4)cc3)cc2n1 (centres unmarked) [Compound 220] | 100 to 1000 nM | 100 to 1000 nM |
| Fc1cc(-c2cc3nccnc3c(NCC3CNCCCO3)n2)ccc1N1CCOCC1 (centres unmarked) [Compound 222] | 100 to 1000 nM | 100 to 1000 nM |
| Clc1cc(-c2cc3nccnc3c(NCC3CNCCCO3)n2)ccc1N1CCOCC1 (centres unmarked) [Compound 223] | 100 to 1000 nM | 100 to 1000 nM |
| Cn1ccc2cc(-c3cc4nccnc4c(NC[C@@H]4CNCCO4)n3)cnc21 [Compound 234] | 100 to 1000 nM | 100 to 1000 nM |
| CN1CCN(c2ccc(-c3cc4nccnc4c(NC[C@H]4CCCNC4)n3)cc2F)CC1 [Compound 237] | 1 to 100 nM | 1 to 100 nM |
| CCN1CCN(c2ccc(-c3cc4nccnc4c(NC[C@H]4CCCNC4)n3)cc2F)CC1 [Compound 238] | 1 to 100 nM | 100 to 1000 nM |
| Fc1cc(-c2cc3nccnc3c(NCC3CNCCS3)n2)ccc1N1CCOCC1 (centres unmarked) [Compound 240] | 1 to 100 nM | 1 to 100 nM |
| CN1CCN(c2ccc(-c3cc4nccnc4c(NCC4CNCCS4)n3)cc2)CC1 (centres unmarked) [Compound 241] | 1 to 100 nM | 100 to 1000 nM |
| C[C@@H]1CN(c2ccc(-c3cc4nccnc4c(NC[C@@H]4CNCCO4)n3)cc2F)C[C@H](C)O1 [Compound 247] | 100 to 1000 nM | 1 to 100 nM |
| FC1(CNc2nc(-c3ccc(N4CCOCC4)cc3)cc3nccnc23)CCCNC1 (centres unmarked) [Compound 251] | 1 to 100 nM | 1 to 100 nM |
| CN1CCN(c2ccc(-c3cc4nccnc4c(NCC4(F)CCCNC4)n3)cc2)CC1 (centres unmarked) [Compound 253] | 1 to 100 nM | 100 to 1000 nM |
| Fc1cc(-c2cc3nccnc3c(NCC3(F)CCCNC3)n2)ccc1N1CCOCC1 (centres unmarked) [Compound 254] | 1 to 100 nM | 1 to 100 nM |
| COc1ccc(-c2cc3nccnc3c(NCC3(F)CCCNC3)n2)cc1F (centres unmarked) [Compound 255] | 100 to 1000 nM | 1 to 100 nM |
| CN1CCN(c2ccc(-c3cc4nccnc4c(NC[C@@H]4CNCCO4)n3)cn2)CC1 [Compound 259] | 100 to 1000 nM | 100 to 1000 nM |
| CN1CCCN(c2ccc(-c3cc4nccnc4c(NC[C@@H]4CNCCO4)n3)cn2)CC1 [Compound 260] | 100 to 1000 nM | 100 to 1000 nM |
| c1cnc2c(NC[C@@H]3CNCCO3)nc(-c3cnn(C4CCOCC4)c3)cc2n1 [Compound 261] | 100 to 1000 nM | 100 to 1000 nM |
| CN(c1ccc(-c2cc3nccnc3c(NC[C@@H]3CNCCO3)n2)cn1)C1CCOCC1 [Compound 264] | 1 to 100 nM | 1 to 100 nM |
| O=C(C1CC1)N1CCN(c2ccc(-c3cc4nccnc4c(NC[C@@H]4CNCCO4)n3)cc2)CC1 [Compound 266] | 1 to 100 nM | 1 to 100 nM |

Further lines, with some results ahead:

| IC50 [1] | Compound | IC50 [2] |
| --- | --- | --- |
| 1 to 100 nM | CN1CCN(c2ccc(-c3cc4nccnc4c(NC[C@@H]4CNCCO4)n3)cc2)CC1 [Compound 123] | 1 to 100 nM |
| 1 to 100 nM | CN1CCN(c2ccc(-c3cc4nccnc4c(N4CC[C@@H](CO)C4)n3)cc2)CC1 [Compound 127] | 100 to 1000 nM |
| 1 to 100 nM | CN1CCN(c2ccc(-c3cc4nccnc4c(N4CCC(C(N)=O)C4)n3)cc2)CC1 (centres unmarked) [Compound 128] | 100 to 1000 nM |
| 1 to 100 nM | Fc1cc(-c2cc3nccnc3c(NC[C@H]3CCCNC3)n2)ccc1N1CCOCC1 [Compound 129] | 1 to 100 nM |
| 1 to 100 nM | c1cnc2c(N3CCC4(CCCNC4)C3)nc(-c3ccc(N4CCOCC4)nc3)cc2n1 (centres unmarked) [Compound 130] | 1 to 100 nM |
| 1 to 100 nM | COc1ccc(-c2cc3nccnc3c(NC[C@@H]3CNCCO3)n2)cc1F [Compound 136] | 1 to 100 nM |
| 1 to 100 nM | FC(F)Oc1ccc(-c2cc3nccnc3c(NC[C@H]3CCCNC3)n2)cc1 [Compound 139] | 1 to 100 nM |
| 1 to 100 nM | CN(C)c1ccc(-c2cc3nccnc3c(NC[C@@H]3CNCCO3)n2)cc1F [Compound 141] | 1 to 100 nM |
| 1 to 100 nM | CN(C)c1ccc(-c2cc3nccnc3c(NC[C@H]3CCCNC3)n2)cc1F [Compound 142] | 1 to 100 nM |
| 1 to 100 nM | CNc1ccc(-c2cc3nccnc3c(NC[C@@H]3CNCCO3)n2)cc1 [Compound 143] | 1 to 100 nM |
| 1 to 100 nM | FC1=CC(CNc2nc(-c3ccc(N4CCOCC4)cc3)cc3nccnc23)CNC1 (centres unmarked) [Compound 157] | 1 to 100 nM |
| 1 to 100 nM | NC(=O)C1CCN(c2nc(-c3ccc(N4CCOCC4)cc3)cc3nccnc23)C1 (centres unmarked) [Compound 179] | 100 to 1000 nM |
| 1 to 100 nM | CN1CCN(c2ccc(-c3cc4nccnc4c(NCCCN)n3)cc2)CC1 [Compound 186] | 100 to 1000 nM |
| 1 to 100 nM | FC1(F)CCNCC1CNc1nc(-c2ccc(N3CCOCC3)c(Cl)c2)cc2nccnc12 (centres unmarked) [Compound 205] | 1 to 100 nM |
| 1 to 100 nM | CC1CN(c2ccc(-c3cc4nccnc4c(NC[C@@H]4CNCCO4)n3)cc2)CCO1 (some centres unmarked) [Compound 208] | 1 to 100 nM |
| 1 to 100 nM | CCN1CCN(c2ccc(-c3cc4nccnc4c(NCC4CNCCO4)n3)cc2)CC1 (centres unmarked) [Compound 215] | 1 to 100 nM |
| 1 to 100 nM | OCCN1CCN(c2ccc(-c3cc4nccnc4c(NCC4CNCCO4)n3)cc2)CC1 (centres unmarked) [Compound 216] | 1 to 100 nM |
| 1 to 100 nM | CC(C)(O)CN1CCN(c2ccc(-c3cc4nccnc4c(NCC4CNCCO4)n3)cc2)CC1 (centres unmarked) [Compound 217] | 1 to 100 nM |
| 1 to 100 nM | c1cnc2c(NC[C@@H]3CNCCO3)nc(-c3ccc(N4CCCOCC4)cc3)cc2n1 [Compound 218] | 1 to 100 nM |
| 1 to 100 nM | Fc1cc(-c2cc3nccnc3c(NC[C@@H]3CNCCO3)n2)ccc1N1CCCOCC1 [Compound 219] | 1 to 100 nM |
| 1 to 100 nM | Cc1cc(-c2cc3nccnc3c(NCC3CNCCCO3)n2)ccc1N1CCOCC1 (centres unmarked) [Compound 221] | 1 to 100 nM |
| 1 to 100 nM | FC1(F)CCN(c2ccc(-c3cc4nccnc4c(NC[C@@H]4CNCCO4)n3)cc2)C1 [Compound 226] | 1 to 100 nM |
| 1 to 100 nM | CN(c1ccc(-c2cc3nccnc3c(NCC3CNCCO3)n2)cc1)S(C)(=O)=O (centres unmarked) [Compound 228] | 100 to 1000 nM |
| 1 to 100 nM | FC1(F)CCN(c2ccc(-c3cc4nccnc4c(NC[C@@H]4CNCCO4)n3)cc2)CC1 [Compound 229] | 1 to 100 nM |
| 1 to 100 nM | F[C@H]1CCN(c2ccc(-c3cc4nccnc4c(NCC4CNCCO4)n3)cc2)C1 (some centres unmarked) [Compound 231] | 1 to 100 nM |
| 1 to 100 nM | Cn1ccc2cc(-c3cc4nccnc4c(NC[C@@H]4CNCCO4)n3)ccc21 [Compound 235] | 1 to 100 nM |
